# Experimental data reported in patent US12594278B2, “Method for treatment of muscular dystrophy” (CHILDREN'S NATIONAL MEDICAL CENTER, priority 2019, dated 2026).
# What was measured:
# [1] = tested on: B6A/J FAPs; experiment: Spontaneous adipogenesis of B6A/J FAPs in culture with batimastat (Oil Red O); assay type: cell-based, mouse; details: 10 μM batimastat from day 3 in culture; 40,000 FAPs from 12Mo B6A/J mice; vs untreated
# Description: To test this, and to independently confirm the benefit of inhibiting adipogenic differentiation of FAPs for dysferlinopathy, a drug was used to inhibit adipogenic differentiation of FAPs. […] To test the ability of batimastat to prevent the spontaneous adipogenesis of B6A/J FAPs, 40,000 FAPs isolated from 12Mo B6A/J mice were treated with 10 μM batimastat starting from 3 days in culture. Using Oil Red O, the extent of adipogenic differentiation of these FAPs after 14 days in culture was quantified in vitro (FIG. 11A).
# Isolation and In Vitro Adipogenesis of FAPs. FAPs were isolated from the hindlimb muscles of 6Mo B6A/J mice in a modified protocol from previously published studies. Mice were euthanized and the tibialis anterior, extensor digitorum longus, gastrocnemius, soleus, quadriceps and psoas were immediately dissected. Non-muscle tissue including tendon, nerve and overlying fascia were carefully removed, and muscles were minced finely in a sterile dish and incubated in Collagenase II (2.5 U/ml, ThermoFisher, #17101015) in PBS for 30 min at 37° C. The resulting slurry was washed with sterile PBS before further digest in Collagenase D (1.5 U/ml, Sigma Aldridge, #COLLD-RO) and Dispase II (2.4 U/ml, Sigma Aldridge, #D4693) in PBS for 60 min at 37° C. […]
# [2] = tested on: mdx mice; details: previously shown; cited from earlier work
compound,measurement,setting,value
CNC(=O)[C@H](Cc1ccccc1)NC(=O)[C@H](CC(C)C)[C@H](CSc1cccs1)C(=O)NO [batimastat],spontaneous adipogenesis of the B6A/J FAPs (Oil Red O),[1],reduced spontaneous adipogenesis
same,fibrosis in mdx mice,[2],reduce fibrosis
same,muscle function in mdx mice,[2],increase muscle function
